Assay results from PubChem BioAssay AID1963853 (Molecular Pharmacology Branch, DTP, NCI, 2024).

Test system: 266295-075-R-J1-PDC spheroid viability
Test: Anticancer human tumor 266295-075-R-J1-PDC patient-derived head and neck squamous carcinoma cell line growth inhibition [POLQ]
Conditions: spheroids with HUVEC and MSC; for IC50: curve of first compound; for viability, T/C: stronger effect = lower value; active = viability on the fitted dose curve at most 10% of control; inactive = the rest
Outline: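 Growth inhibition in 3D: complex spheroids (tumor PDC, HUVEC, MSC) treated with POLQ inhibitor combinations; where Cmax unknown, highest tested concentration 10 microM, except SN-38 at 1 microM.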

[1] = second compound 0.0316 µM, first compound 0.0316 µM
[2] = second compound 0.0316 µM, first compound 0.1 µM
[3] = second compound 0.0316 µM, first compound 0.316 µM
[4] = second compound 0.0316 µM, first compound 1 µM
[5] = second compound 0.0316 µM, first compound 3.16 µM
[6] = second compound 0.0316 µM, first compound 10 µM
[7] = second compound 0.1 µM, first compound 0.0316 µM
[8] = second compound 0.1 µM, first compound 0.1 µM
[9] = second compound 0.1 µM, first compound 0.316 µM
[10] = second compound 0.1 µM, first compound 1 µM
[11] = second compound 0.1 µM, first compound 3.16 µM
[12] = second compound 0.1 µM, first compound 10 µM
[13] = second compound 0.316 µM, first compound 0.0316 µM
[14] = second compound 0.316 µM, first compound 0.1 µM
[15] = second compound 0.316 µM, first compound 0.316 µM
[16] = second compound 0.316 µM, first compound 1 µM
[17] = second compound 0.316 µM, first compound 3.16 µM
[18] = second compound 0.316 µM, first compound 10 µM
[19] = second compound 1 µM, first compound 0.0316 µM
[20] = second compound 1 µM, first compound 0.1 µM
[21] = second compound 1 µM, first compound 0.316 µM
[22] = second compound 1 µM, first compound 1 µM
[23] = second compound 1 µM, first compound 3.16 µM
[24] = second compound 1 µM, first compound 10 µM
[25] = second compound 3.16 µM, first compound 0.0316 µM
[26] = second compound 3.16 µM, first compound 0.1 µM
[27] = second compound 3.16 µM, first compound 0.316 µM
[28] = second compound 3.16 µM, first compound 1 µM
[29] = second compound 3.16 µM, first compound 3.16 µM
[30] = second compound 3.16 µM, first compound 10 µM
[31] = second compound 10 µM, first compound 0.0316 µM
[32] = second compound 10 µM, first compound 0.1 µM
[33] = second compound 10 µM, first compound 0.316 µM
[34] = second compound 10 µM, first compound 1 µM
[35] = second compound 10 µM, first compound 3.16 µM
[36] = second compound 10 µM, first compound 10 µM
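Note: spheroids exposed to compounds for seven days before readout.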

CC1COCCN1c1cc(-c2ccnn2C)c2ccnc(-c3ccn[nH]3)c2n1 (centres undefined) + Cc1cccc(N(C)C(=O)C2C(O)CCN2c2nc(C)cc(C(F)(F)F)c2C#N)c1
1640 nM: IC50 (second compound 0.0316 µM)
1150 nM: IC50 (second compound 1 µM)
1320 nM: IC50 (second compound 0.1 µM)
1780 nM: IC50 (second compound 10 µM)
1400 nM: IC50 (second compound 0.316 µM)
inactive: viability, T/C [1] 93.8% | viability, T/C [2] 69.7% | viability, T/C [3] 68.4% | viability, T/C [4] 56% | viability, T/C [5] 41% | viability, T/C [6] 40% | viability, T/C [7] 87.2% | viability, T/C [8] 68.4% | viability, T/C [9] 60.9% | viability, T/C [10] 52.6% | viability, T/C [11] 45.2% | viability, T/C [12] 40.9% | viability, T/C [13] 75.6% | viability, T/C [14] 78.2% | viability, T/C [15] 68.9% | viability, T/C [16] 50.7% | viability, T/C [17] 47.4% | viability, T/C [18] 36.9% | viability, T/C [19] 89% | viability, T/C [20] 81.6% | viability, T/C [21] 69.4% | viability, T/C [22] 48.4% | viability, T/C [23] 46.3% | viability, T/C [24] 38.1% | viability, T/C [25] 81.3% | viability, T/C [26] 78.4% | viability, T/C [27] 66.8% | viability, T/C [28] 54.9% | viability, T/C [29] 46.6% | viability, T/C [30] 36.7% | viability, T/C [31] 87.4% | viability, T/C [32] 90.1% | viability, T/C [33] 69.7% | viability, T/C [34] 56.3% | viability, T/C [35] 46.1% | viability, T/C [36] 38%
1870 nM: IC50 (second compound 3.16 µM)

COc1cccc2c1C(=O)c1c(O)c3c(c(O)c1C2=O)CC(O)(C(=O)CO)CC3OC1CC(N)C(O)C(C)O1 (centres undefined) + Cc1cccc(N(C)C(=O)C2C(O)CCN2c2nc(C)cc(C(F)(F)F)c2C#N)c1
838 nM: IC50 (second compound 10 µM)
1580 nM: IC50 (second compound 0.0316 µM)
1600 nM: IC50 (second compound 0.1 µM)
1350 nM: IC50 (second compound 0.316 µM) | IC50 (second compound 1 µM)
active: viability, T/C [6] 1.6% | viability, T/C [12] 1.95% | viability, T/C [18] 2.38% | viability, T/C [24] 1.59% | viability, T/C [30] 1.26% | viability, T/C [36] 1.42%
1120 nM: IC50 (second compound 3.16 µM)
inactive: viability, T/C [1] 69.3% | viability, T/C [2] 74.4% | viability, T/C [3] 65.8% | viability, T/C [4] 59.6% | viability, T/C [5] 36.1% | viability, T/C [7] 79.5% | viability, T/C [8] 81.9% | viability, T/C [9] 61.6% | viability, T/C [10] 60.2% | viability, T/C [11] 40% | viability, T/C [13] 84.5% | viability, T/C [14] 76% | viability, T/C [15] 59.8% | viability, T/C [16] 60.3% | viability, T/C [17] 36.1% | viability, T/C [19] 85.1% | viability, T/C [20] 90.8% | viability, T/C [21] 79.4% | viability, T/C [22] 55.7% | viability, T/C [23] 28.3% | viability, T/C [25] 81.1% | viability, T/C [26] 81.1% | viability, T/C [27] 61.6% | viability, T/C [28] 60.3% | viability, T/C [29] 19.1% | viability, T/C [31] 90.9% | viability, T/C [32] 84.6% | viability, T/C [33] 67.7% | viability, T/C [34] 52.3% | viability, T/C [35] 9.35%
